# Assay results: paper PMC6848912 (British Journal of Clinical Pharmacology, 2019)
# Experiments:
# [1] = in combination with carboplatin + paclitaxel; cited from earlier work
# [2] = Inc. data on file, cited from earlier work
# [3] = Population pharmacokinetic analysis; type: in vivo
# [4] = cited from earlier work
# [5] = concurrent administration of carboplatin + paclitaxel
# [6] = nonparametric bootstrap of final PPK model
smiles,measurement,setting,value
"NS(=O)(=O)OC[C@@H]1C[C@@H](n2ccc3c(N[C@H]4CCc5ccccc54)ncnc32)C[C@@H]1O [pevonedistat, Pevonedistat]",maximum tolerated dose (MTD) / recommended Phase II dose,[1],20 mg/m^2
same,renal clearance contribution to total systemic clearance,[2]; ref Millennium Pharmaceuticals,< 5%
same,"renal elimination pathway, share of total plasma clearance",[2]; ref Takeda Millennium Pharmaceuticals,2.5%
same,average increase in pevonedistat exposure (AUC),[3]; [5],79%
same,"average increase in pevonedistat exposure (AUC), fold",[3]; [5],1.79 fold
same,"impact of race, sex, age, tumour type, mild or moderate renal impairment (CrCL ≥30 mL/min), mild hepatic impairment on pevonedistat PK",[3]; covariate analysis,had no impact on pevonedistat PK
same,"IIV_CL (interindividual variability), typical value",[3]; final PPK model,36.6 %CV
same,"IIV_Q, typical value",[3]; final PPK model,60.5 %CV
same,"IIV_Vc, typical value",[3]; final PPK model,36.6 %CV
same,"IIV_Vp, typical value",[3]; final PPK model,36.9 %CV
same,"Albumin on Q (exponent), typical value","[3]; final PPK model, (ALB/40)^θ13",1.45
same,"BSA on Q (exponent), typical value","[3]; final PPK model, set the same as BSA on CL",1.33
same,"BSA on Vp (exponent), typical value","[3]; final PPK model, set the same as BSA on Vc",1.39
same,"BSA on Vc (exponent), typical value","[3]; final PPK model, set the same as BSA on Vp",1.39
same,Vd,"[3]; human, plasma, intravenous",117 L
same,"Albumin on Q, bootstrap median",[3]; [6],1.45
same,"BSA on Q, bootstrap median",[3]; [6],1.33
same,"BSA on Vc, bootstrap median",[3]; [6],1.39
same,"BSA on Vp, bootstrap median",[3]; [6],1.39
same,"IIV_CL, bootstrap median",[3]; [6],35.9 %CV
same,"IIV_Q, bootstrap median",[3]; [6],60.2 %CV
same,"IIV_Vc, bootstrap median",[3]; [6],36.6 %CV
same,"IIV_Vp, bootstrap median",[3]; [6],36.7 %CV
same,"Q, bootstrap median",[3]; [6],22 L/h
same,"Vc, bootstrap median",[3]; [6],115 L
same,"Vp, bootstrap median",[3]; [6],121 L
same,dose linearity of PK (AUC from time 0 to 24 hours vs dose),[4]; dose from 25 to 278 mg/m^2,linear
same,drug accumulation,[4]; once-daily dosing for 5 consecutive days or intermittent dosing,little or no notable drug accumulation
